Key:
[1] = tested on: BCEC confluent monolayers; assay: BCEC scratch assay; assay type: cell-based, bovine
Method: BCECs (passage 6-10) and HUVEC (passage 6-8) were used in this assay. Cells were grown until about 80% confluency in 6-well plates, washed twice with PBS and then starved in serum-free DMEM (low Glucose, Hyclone) for 5 hrs before making a “scratch” using 1 ml tip. Cell monolayers were briefly washed once with serum-free media, followed by various treatments in media containing 1% FBS. 48 hrs later, the assay was stopped by adding 2 ml 4% paraformaldehyde. 20 min later, fixed cells were stained with 1 ml Crystal Violet (Sigma). Plates were washed gently under the running tap water and air-dried before taking pictures. Images were acquired by ZEISS Discovery […] microscopy equipped with […] camera. Quantification of wound closure was done using AxioVision LE Rel.4.4 software. Six images were taken for each sample and six measurements (in pixel) were made on each image using AxioVision LE Rel.4.4 software.

[2] = tested on: Bip, CHOP and ATF-6; assay: Western blot of UPR responsive proteins in BCECs; assay type: cell-based, bovine
Method: (§1) Cells were allowed to reach ˜80% confluency in 12-well plates. […] At various time points, plates were taken out of the incubator and kept on ice. Cell monolayers were first washed once with ice-cold PBS before lysis with 250 μl of Pierce RIPA buffer (ThermoFisher Scientific, Rockford, IL) or use 50 mM Tris-HCl (pH 7.6), 150 mM NaCl, 10% Glycerol, 1% NP-40 containing protease/Phosphatase inhibitor cocktail (100×) (Cell signaling, #5872). Lysates were collected and mixed with 4×Bolt LDS Sample Buffer (Novex, Carlsbad, CA) in the presence of Halt protease inhibitors and phosphatase inhibitor cocktail (ThermoFisher scientific, #NP0007). The samples were subjected to SDS-PAGE (Bolt 4-12% Bis-Tris Plus, Invitrogen) using Bolt MES SDS running buffer or NuPAGE 3-8% Tris-Acetate gel using Tris-Acetate SDS running buffer (Novex). HUVECs (passage 6-8) were plated in EBM-2 basal medium (Lonza) with 0.2% FBS. […] Equal amounts of protein lysates were analyzed by SDS-PAGE and blotted with the indicated antibodies. Proteins were transferred using Tris-Glycine buffer with 20% Methanol (Proteonomics grade) (Apex BioResearch Products). Membranes were first incubated with 5% milk in TBST, pH 7.6 (TEKnova, Hollister, CA), followed by blotting with primary and secondary antibodies. ECL anti-rabbit IgG, horseradish peroxidase linked whole antibody from donkey or sheep anti-mouse were obtained from GE Healthcare (UK limited). SuperSignal West Dura Extended Duration substrate was from ThermoFisher Scientific. In some cases, the same PVDF membranes were stripped by 8-min incubation in the Restore Plus Western Blot Stripping Buffer (ThermoFisher Scientific) to show total specific protein expression, followed by second stripping for β-actin expression.

[3] = tested on: ischemic hindlimb; assay: Hindlimb ischemia model and blood flow; assay type: in vivo, mouse; settings: for blood perfusion ratio, of sham-treatment limbs: 3 weeks; for blood vessel density compared with H2O-treated control (CD31): 3 weeks post-ligation; for blood flow recovery (perfusion ratio): one week after surgery, 20% ManN oral or 1 mg/ml Kif ip every other day
Method: C57BL/6 male mice (6-8 weeks old) were subjected to unilateral hindlimb surgery under anesthesia with ketamine/xylazine cocktail. Briefly, the left femoral artery was separated from the vein and nerve, ligated proximally, and excised. The right hindlimb served as control. Blood flow was measured by using a laser Doppler perfusion imager (PeriScan PSI; Perimed). Ischemic and nonischemic limb perfusion was measured before and after surgery and 1, 2 and 3 weeks later. After surgery, mice were randomly allocated to different groups (8 mice for each group). 200 μl of 20% ManN was orally administrated every other day from 3rd day after surgery. 200 μl of 1 mg/ml Kif was administrated through ip injection every other day. H2O was used as a vehicle control. The final blood flow values were expressed as the ratio of ischemic to nonischemic hindlimb perfusion from the same animal. Quantification of blood vessel area was carried out as described.

[4] = tested on: retinal vasculature; assay: Retinal neovascularization after intravitreal injection; assay type: in vivo, mouse; settings: intravitreal 500 ng ManN or Kif, 200 ng bFGF; seven days
Method: Assessment of retinal angiogenesis following intravitreal administration was done. Briefly, 6-8 weeks old C57BL/6 male mice were randomly allocated to different groups and anesthetized with ketamine/Xylazine cocktail. The indicated amounts of ManN, Kif or bFGF (R&D systems, AF-233-NA) in 1 μl of PBS and PBS vehicle control were injected intravitreally with a 33-gauge Hamilton syringe. Seven days after injection, animals were euthanized. Eyes were then enucleated and fixed in 4% paraformaldehyde (PFA) for 30 mins. Retinas were separated and stained with anti-CD31 immunofluorescence (IF) to evidence the vasculature. Evaluations were performed by an investigator blinded to the treatment. For CD31 IF, rat anti-mouse antibody (BD Biosciences, CAT #550274) was diluted 1:100 and incubated overnight at 4° C. After 4-hour incubation with the Alexa Fluor-488-conjugated anti-rat antibody (Life Technologies, A11006), whole mounts were imaged via the 488 nm channel using A1R Confocal STORM super-resolution system (Nikon). Quantification of vascular density in choroids and retina was carried out by Image J. Each experiment was repeated three times with similar results, and each treatment group consists of 5 individual samples.

[5] = tested on: VEGFR2; assay: Western blot of VEGFR2 protein mass in human ECs; assay type: cell-based; settings: hRMVEC, HUVEC and hDMVECs; 40 uM ManN
Method: as §1, with “80%” for “˜80%”, “ECL anti-rabbit IgG, horseradish peroxidase linked whole antibody from donkey or sheep anti-mouse were obtained from GE Healthcare (UK limited). SuperSignal West Dura Extended Duration substrate was from ThermoFisher Scientific. In some cases, the same PVDF membranes were stripped by 8-min incubation in the Restore Plus Western Blot Stripping Buffer (ThermoFisher Scientific) to show total specific protein expression, followed by second stripping for β-actin expression.” left out

Structure (SMILES) | activity of glycosylation inhibitors in BCEC scratch assay ([1]; over 48 hours relative to control) | Bip expression with glycosylation inhibitors ([2]; media without growth factors for 24 hours) | blood perfusion ratio, of sham-treatment limbs [3] | blood vessel density compared with H2O-treated control (CD31) [3] | blood flow recovery (perfusion ratio) [3] | increase in density of retinal vessels compared to PBS group [4] | closure of the scratched area compared to control ([1]; 40 uM ManN or 50 ng/ml of VEGF, after 48 hours) | additivity of ManN and VEGF in scratch assay ([1]; both ManN and VEGF) | change in VEGFR2 protein mass [5] | synergy between ManN and VEGF in promoting Bip or CHOP expression [2] | time at which accumulation of Bip is evident [2] | time of CHOP induction ([2]; dose-dependent) | Bip expression ([2]; growing cells deprived of growth factor supply)
O=C1N[C@@H]2[C@@H](O)[C@@H](O)[C@H](O)[C@@H](CO)N2C1=O [Kif, Kifunensine, reference compound] | significant activity | dose-dependent induction of Bip expression | ~50% | 1.8 times | ~47% | ~20% | – | – | – | – | – | – | –
N[C@H](C=O)[C@@H](O)[C@H](O)[C@H](O)CO [ManN, 2-Amino-2-deoxy-D-mannose] | – | – | ~50% | 2.3 times | about 40% | ~30% | significantly accelerated | additivity was observed | significant change in VEGFR2 protein mass | No synergy | 24 h | about 6 hours | significantly turn on Bip expression in a concentration-dependent manner

Source: patent US20230390315A1, “COMPOSITIONS AND METHODS FOR TREATING ISCHEMIC CONDITIONS” (The Regents of the University of California, priority 2020, published 2023)
